# Measurements published in patent EP1272659B1, “EARLY DIAGNOSIS OF M[…] HUMAN BEINGS” (Università degli Studi di Roma " Tor Vergata", priority 2000, dated 2001).
# Target: T1, FAAH (anandamide hydrolase; arachidonoylethanolamide amidohydrolase, EC 3.5.1.4) in human lymphocyte homogenates (Homo sapiens, UniProt O00519)
# T1 construct: Lymphocytes were purified from peripheral blood by gradient centrifugation; from tissue; host or cells: human peripheral blood lymphocytes of pregnant women, homogenate
# T1 sequence (O00519 1-579): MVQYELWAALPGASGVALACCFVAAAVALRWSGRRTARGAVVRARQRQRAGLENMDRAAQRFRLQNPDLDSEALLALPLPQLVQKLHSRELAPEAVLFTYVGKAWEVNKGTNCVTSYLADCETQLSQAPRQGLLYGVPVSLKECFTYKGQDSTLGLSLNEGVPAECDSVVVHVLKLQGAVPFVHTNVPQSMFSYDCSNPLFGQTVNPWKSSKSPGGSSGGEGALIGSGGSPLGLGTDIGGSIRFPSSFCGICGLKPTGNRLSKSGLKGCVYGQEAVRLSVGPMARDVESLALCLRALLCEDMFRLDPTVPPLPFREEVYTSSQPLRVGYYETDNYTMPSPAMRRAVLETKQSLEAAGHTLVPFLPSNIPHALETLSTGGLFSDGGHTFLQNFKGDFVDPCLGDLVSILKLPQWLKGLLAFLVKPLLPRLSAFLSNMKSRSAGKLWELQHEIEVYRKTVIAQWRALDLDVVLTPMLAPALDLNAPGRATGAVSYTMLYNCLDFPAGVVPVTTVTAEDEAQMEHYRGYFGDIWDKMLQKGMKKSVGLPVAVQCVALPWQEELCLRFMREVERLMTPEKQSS
# Test: Kinetic analysis of FAAH activity in human lymphocyte homogenates: release of [1-14C]arachidonic acid from [1-14C]anandamide, reversed phase HPLC
# Type: biochemical
# Details: <8 weeks of pregnancy; for apparent maximum velocity (Vmax): lymphocyte homogenates
# Description: The activity of FAAH (arachidonoylethanolamide amidohydrolase, EC 3.5.1.4) in human lymphocyte homogenates (20 µg/test) was determined by measuring the release of [1-^14C] arachidonic acid from [1-^14C] anandamide (NEN DuPont de Nemours, 52 mCi/mmol), using reversed phase high performance liquid cromatography as reported in Maccarrone et al. 1998.
# The difference in FAAH activity between the group of 43 subjects with normal pregnancy (mean value = 169.60 ± 30.20 pmol.min^-1.mg protein^-1) and the group of 7 women who aborted (mean value 60.43 ± 29.34 pmol.min^-1.mg protein^-1) was statistically significant (P<0.0001 by the Mann-Whitney test). Embryonic death occurred approximately 10 days later, i.e. at 8 to 11 weeks for the subjects <7- to <10-week pregnant, respectively. […] On the other hand, the bell-shaped curve found for FAAH activity in normal subjects is frequently observed with biological indicators of the first trimester of pregnancy, such as the beta-subunit of human chorionic gonadotropin (Goldstein in Obstet Gynecol 1994).
# FAAH (arachidonoylethanolamide amidohydrolase, EC 3.5.1.4) activity in human lymphocyte homogenates (20 µg/test) was determined by measuring the release of [1-^14C]arachidonic acid from [1-^14C] anandamide (NEN DuPont de Nemours, 52 mCi/mmol), using reverse phase high performance liquid cromatography as reported (Maccarrone et al. 1998). It has to be pointed out that the use of [^3H] anandamide, measuring the release of [^3H]arachidonic acid, yields the same results.
compound,measurement,setting,value
"CCCCC/C=C\C/C=C\C/C=C\C/C=C\CCCC(=O)NCCO [anandamide, arachidonoylethanolamide]",apparent maximum velocity (Vmax),subjects who miscarried,75 ± 8 pmol.min^-1.mg protein^-1
same,apparent maximum velocity (Vmax),subjects with normal gestation,187 ± 20 pmol.min^-1.mg protein^-1
same,Km,"read-out: apparent Michaelis-Menten constant (Km), lymphocyte homogenates (20 µg/test), same value for subjects with normal gestation and those who miscarried",8 ± 1 µM
